From patent publication US8815891B2, “Tricyclic derivative or pharmaceutically acceptable salts thereof, preparation method thereof, and pharmaceutical composition containing the same” (Je Il Pharmaceutical Co., Ltd., priority 2008, dated 2014)
Structures can show the parent of a compound that is named as a salt.

target: PARP-1 enzyme (Homo sapiens (Human), UniProt P09874); test: Poly(ADP-ribose)polymerase [PARP-1] enzyme inhibitory activity (Trevigen PARP Assay kit); format: biochemical; settings: PARP-1 enzyme, histone ribosylation, 450 nm; read-out: PARP-1 Inhibitory activity IC50
Experimental: The activity of the compounds according to the present invention to inhibit the PARP-1 enzyme was examined using a PARP Assay kit (4671-096-K) purchased from Trevigen. The assay was performed following a modified previously reported method by Lee et al [Methods Find, Exp. Clin. Pharmacol., 27, 617-622, 2005].
Histone was coated on 384-well plate, which is a small volume PS plate (784101) of Greiner Bio-One, and left at 25° C. for 2 hours. After that, the plate was rinsed four times with PBS (7.5 mM Na2HPO4, 2.5 mM NaH2PO4, 145 mM NaCl, pH 7.4), and in order to prevent non-specific reaction, the Strep-diluent (provided from kit of Trevigen) was added and left at 25° C. for one hour. After one hour, the plate was again rinsed with PBS four times, and the compounds of the Examples in various concentrations were put into reactant containing PARP-1 enzyme (0.12 unit/well), 2×PARP cocktail (1.95 mM NAD^+, 50 uM biotinylated NAD^+, and activated DNA in 50 mM Tris pH 8.0, 25 mM MgCl2) and allowed to react at 25° C. for 30 minutes. After 30 minutes, each well was rinsed with PBS four times, and in order to measure the amount of rybosylation by the PARP enzyme, strepavidin-linked peroxidase (Strep-HRP, 1:1000 diluted) was added and allowed to react at 37° C. for 30 minutes. The plate was rinsed with PBS four times, and TACS-Sapphire substrate was put and allowed to react at 25° C. for 10 minutes so that color reaction occurred. Finally, the reaction was terminated by the addition of 0.2 N HCl. The amount of histone ribosylation formed by PARP-1 enzyme was quantified at 450 nm using Wallac EnVision™ (PerkinElmer Oy, Turku, Finland).

Chain of PARP-1 enzyme (P09874 whole entry): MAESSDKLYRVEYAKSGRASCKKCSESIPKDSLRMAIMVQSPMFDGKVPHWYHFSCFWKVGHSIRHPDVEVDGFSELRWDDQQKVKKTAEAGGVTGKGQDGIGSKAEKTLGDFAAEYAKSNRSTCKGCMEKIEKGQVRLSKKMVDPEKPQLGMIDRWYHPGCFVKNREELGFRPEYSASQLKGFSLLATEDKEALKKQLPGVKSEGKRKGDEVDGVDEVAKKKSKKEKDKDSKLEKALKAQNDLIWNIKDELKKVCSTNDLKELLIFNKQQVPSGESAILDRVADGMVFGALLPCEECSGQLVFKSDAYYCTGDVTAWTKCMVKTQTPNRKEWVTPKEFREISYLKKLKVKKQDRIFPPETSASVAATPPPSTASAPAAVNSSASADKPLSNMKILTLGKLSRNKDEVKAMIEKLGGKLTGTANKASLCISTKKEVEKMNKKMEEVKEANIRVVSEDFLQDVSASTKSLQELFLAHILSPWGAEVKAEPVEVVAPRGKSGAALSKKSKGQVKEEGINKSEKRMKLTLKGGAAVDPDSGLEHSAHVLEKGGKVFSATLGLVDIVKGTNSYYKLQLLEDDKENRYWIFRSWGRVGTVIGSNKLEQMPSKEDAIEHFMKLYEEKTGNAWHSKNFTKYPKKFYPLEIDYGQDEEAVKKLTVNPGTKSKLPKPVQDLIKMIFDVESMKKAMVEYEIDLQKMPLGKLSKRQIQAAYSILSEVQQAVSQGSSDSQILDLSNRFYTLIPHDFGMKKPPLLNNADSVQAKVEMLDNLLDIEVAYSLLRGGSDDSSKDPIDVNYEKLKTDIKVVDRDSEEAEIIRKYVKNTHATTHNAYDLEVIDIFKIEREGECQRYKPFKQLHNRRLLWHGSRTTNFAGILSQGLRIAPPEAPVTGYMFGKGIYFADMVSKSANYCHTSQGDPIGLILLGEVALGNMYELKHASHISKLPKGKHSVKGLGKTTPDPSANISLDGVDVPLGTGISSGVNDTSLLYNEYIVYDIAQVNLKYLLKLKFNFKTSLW

With `COc1ccc2c3c(c(=O)[nH]c2c1)CCCN3` [Example 1, 8-Methoxy-1,2,3,4-tetrahydrobenzo[h][1,6]naphthyridine-5(6H)-one hydrochloride] as the compound, how does the IC50 read?
Its IC50 is greater than 4000 nM.

`COc1ccc2[nH]c(=O)c3c(c2c1)NCCC3` [Example 3, 9-Methoxy-1,2,3,4-tetrahydrobenzo[h][1,6]naphthyridine-5(6H)-one hydrochloride] was tested. Which IC50 did it give?
The IC50 was 500 nM.

With `CCCN1CCCc2c1c1cc(OC)ccc1[nH]c2=O` [Example 6, 9-Methoxy-1-propyl-1,2,3,4-tetrahydrobenzo[h][1,6]naphthyridine-5(6H)-one hydrochloride] as the compound, how does the IC50 read?
Its IC50 is greater than 4000 nM.

How did the IC50 turn out when `CN1CCCc2c1c1ccccc1[nH]c2=O` [Example 7, 1-Methyl-1,2,3,4-tetrahydrobenzo[h][1,6]naphthyridine-5(6H)-one hydrochloride] was run?
The IC50 was greater than 4000 nM.

`COc1ccc2[nH]c(=O)c3c(c2c1)N(C)CCC3` [Example 8, 9-Methoxy-1-methyl-1,2,3,4-tetrahydrobenzo[h][1,6]naphthyridine-5(6H)-one hydrochloride] was tested. Which IC50 did it give?
Its IC50 is greater than 4000 nM.

Which IC50 does the source give for `CCN1CCCc2c1c1cc(OC)ccc1[nH]c2=O` [Example 9, 1-Ethyl-9-methoxy-1,2,3,4-tetrahydrobenzo[h][1,6]naphthyridine-5(6H)-one hydrochloride] here?
Its IC50 is greater than 4000 nM.

Which IC50 does the source give for `CN1CCCc2c1c1cc(O)ccc1[nH]c2=O` [Example 10, 1-Methyl-9-hydroxy-1,2,3,4-tetrahydrobenzo[h][1,6]naphthyridine-5(6H)-one hydrochloride] here?
Its IC50 is greater than 4000 nM.

Which IC50 does the source give for `CN1CCC(Oc2ccc3[nH]c(=O)c4c(c3c2)N(C)CCC4)CC1` [Example 14, 1-Methyl-9-(1-methylpiperidine-4-yloxy)-1,2,3,4-tetrahydrobenzo[h][1,6]naphthyridine-5(6H)-one dihydrochloride] here?
The IC50 was greater than 4000 nM.

Which IC50 does the source give for `CN(C)CCOc1ccc2[nH]c(=O)c3c(c2c1)NCCC3` [Example 16, 9-[2-(Dimethylamino)ethoxy]-1,2,3,4-tetrahydrobenzo[h][1,6]naphthyridine-5(6H)-one dihydrochloride] here?
Its IC50 is less than 1000 nM.

`O=c1[nH]c2ccc(OCCCN3CCCCC3)cc2c2c1CCCN2` [Example 21, 9-[3-(Piperidine-1yl)propoxy]-1,2,3,4-tetrahydrobenzo[h][1,6]naphthyridine-5(6H)-one dihydrochloride] was tested. Which IC50 did it give?
Its IC50 is greater than 4000 nM.

Which IC50 does the source give for `O=c1[nH]c2ccc(OCCO)cc2c2c1CCCN2` [Example 24, 9-(2-Hydroxyethoxy)-1,2,3,4-tetrahydrobenzo[h][1,6]naphthyridine-5(6H)-one hydrochloride] here?
Its IC50 is 1080 nM.

Which IC50 does the source give for `O=c1[nH]c2ccc(OCCc3ccccc3)cc2c2c1CCCN2` [Example 25, 9-Penethoxy-1,2,3,4-tetrahydrobenzo[h][1,6]naphthyridine-5(6H)-one dihydrochloride] here?
The IC50 was greater than 4000 nM.

Which IC50 does the source give for `CCN(CC)CCOc1ccc2[nH]c(=O)c3c(c2c1)NCCC3` [Example 26, 9-[2-(Diethylamino)ethoxy]-1,2,3,4-tetrahydrobenzo[h][1,6]naphthyridine-5(6H)-one dihydrochloride] here?
Its IC50 is less than 1000 nM.

For `CC[N+]1(CC)CCN(CCOc2ccc3[nH]c(=O)c4c(c3c2)NCCC4)CC1` [Example 28, 1,1-Diethyl-4-[2-(5-oxo-1,2,3,4,5,6-hexahydrobenzo[h][1,6]naphthyridine-9-yloxy]ethyl)piperazine-1-ium chloride], which IC50 is on record?
The IC50 was greater than 4000 nM.

Which IC50 does the source give for `CN(C)CCc1ccc2[nH]c(=O)c3c(c2c1)NCCC3` [Example 31, 9-[2-(Dimethylamino)ethyl]-1,2,3,4-tetrahydrobenzo[h][1,6]naphthyridine-5(6H)-one dihydrochloride] here?
Its IC50 is 1070 nM.

Which IC50 does the source give for `CN(C)CCCc1ccc2[nH]c(=O)c3c(c2c1)NCCC3` [Example 33, 9-[3-(Dimethylamino)propyl]-1,2,3,4-tetrahydrobenzo[h][1,6]naphthyridine-5(6H)-one dihydrochloride] here?
The IC50 was less than 1000 nM.

How did the IC50 turn out when `CNC(C)c1ccc2c3c(c(=O)[nH]c2c1)CCCN3` (stereo not shown) [Example 39, 8-[1-(Methylamino)ethyl]-1,2,3,4-tetrahydrobenzo[h][1,6]naphthyridine-5(6H)-one dihydrochloride] was run?
Its IC50 is less than 1000 nM.

With `CN(C)CCN(C)Cc1ccc2c3c(c(=O)[nH]c2c1)CCCN3` [Example 54, 8-{[(2-(Dimethylaminoethyl)(methyl)amino]methyl}-1,2,3,4-tetrahydrobenzo[h][1,6]naphthyridine-5(6H)-one trihydrochloride] as the compound, how does the IC50 read?
Its IC50 is 930 nM.

same assay, conditions: read-out: PARP-1 Inhibitory activity IC50

For `CCCN1CCC(Oc2ccc3[nH]c(=O)c4c(c3c2)NCCC4)CC1` [Example 11, 9-(1-Propylpiperidine-4-yloxy)-1,2,3,4-tetrahydrobenzo[h][1,6]naphthyridine-5(6H)-one dihydrochloride], which IC50 is on record?
Its IC50 is 1030 nM.

How did the IC50 turn out when `CN1CCC(Oc2ccc3[nH]c(=O)c4c(c3c2)NCCC4)CC1` [Example 12, 9-(1-Methylpiperidine-4-yloxy)-1,2,3,4-tetrahydrobenzo[h][1,6]naphthyridine-5(6H)-one dihydrochloride] was run?
Its IC50 is 1070 nM.

How did the IC50 turn out when `CN1CCCc2c1c1cc(OC3CCNCC3)ccc1[nH]c2=O` [Example 13, 1-Methyl-9-(piperidine-4-yloxy)-1,2,3,4-tetrahydrobenzo[h][1,6]naphthyridine-5(6H)-one dihydrochloride] was run?
Its IC50 is 3850 nM.

For `CN(C)CCOc1ccc2[nH]c(=O)c3c(c2c1)NCCC3` [Example 16, 9-[2-(Dimethylamino)ethoxy]-1,2,3,4-tetrahydrobenzo[h][1,6]naphthyridine-5(6H)-one dihydrochloride], which IC50 is on record?
The IC50 was 370 nM.

How did the IC50 turn out when `O=c1[nH]c2ccc(OCCN3CCNCC3)cc2c2c1CCCN2` [Example 19, 9-[2-(Piperazine-1yl)ethoxy]-1,2,3,4-tetrahydrobenzo[h][1,6]naphthyridine-5(6H)-one trihydrochloride] was run?
The IC50 was 1480 nM.

How did the IC50 turn out when `NCCOc1ccc2[nH]c(=O)c3c(c2c1)NCCC3` [Example 22, 9-(2-Aminoethoxy)-1,2,3,4-tetrahydrobenzo[h][1,6]naphthyridine-5(6H)-one dihydrochloride] was run?
The IC50 was 1160 nM.

Which IC50 does the source give for `O=c1[nH]c2ccc(OCCN3CCC(c4ccccc4)CC3)cc2c2c1CCCN2` [Example 23, 9-[2-(4-Phenylpiperidine-1yl)ethoxy]-1,2,3,4-tetrahydrobenzo[h][1,6]naphthyridine-5(6H)-one dihydrochloride] here?
Its IC50 is 1430 nM.

For `CCN(CC)CCOc1ccc2[nH]c(=O)c3c(c2c1)NCCC3` [Example 26, 9-[2-(Diethylamino)ethoxy]-1,2,3,4-tetrahydrobenzo[h][1,6]naphthyridine-5(6H)-one dihydrochloride], which IC50 is on record?
Its IC50 is 390 nM.

Which IC50 does the source give for `O=c1[nH]c2ccc(OCCN3CCOCC3)cc2c2c1CCCN2` [Example 27, 9-(2-Morpholinoethoxy)-1,2,3,4-tetrahydrobenzo[h][1,6]naphthyridine-5(6H)-one dihydrochloride] here?
The IC50 was 2640 nM.

How did the IC50 turn out when `CN1CCCc2c1c1cc(OCCN3CCCCC3)ccc1[nH]c2=O` [Example 30, 1-Methyl-9-[2-(piperidine-1-yl)ethoxy]-1,2,3,4-tetrahydrobenzo[h][1,6]naphthyridine-5(6H)-one dihydrochloride] was run?
The IC50 was 3110 nM.

`CN(C)CCCc1ccc2[nH]c(=O)c3c(c2c1)NCCC3` [Example 33, 9-[3-(Dimethylamino)propyl]-1,2,3,4-tetrahydrobenzo[h][1,6]naphthyridine-5(6H)-one dihydrochloride] was tested. Which IC50 did it give?
The IC50 was 930 nM.

With `O=c1[nH]c2cc(OCCN3CCCCC3)ccc2c2c1CCCN2` [Example 35, 8-[2-(Piperidine-1yl)ethoxy]-1,2,3,4-tetrahydrobenzo[h][1,6]naphthyridine-5(6H)-one dihydrochloride] as the compound, how does the IC50 read?
Its IC50 is 3540 nM.

`CN(C)CCCOc1ccc2c3c(c(=O)[nH]c2c1)CCCN3` [Example 36, 8-[3-(Dimethylamino)propoxy]-1,2,3,4-tetrahydrobenzo[h][1,6]naphthyridine-5(6H)-one dihydrochloride] was tested. Which IC50 did it give?
The IC50 was 3020 nM.

How did the IC50 turn out when `CNC(C)c1ccc2c3c(c(=O)[nH]c2c1)CCCN3` (stereo not shown) [Example 39, 8-[1-(Methylamino)ethyl]-1,2,3,4-tetrahydrobenzo[h][1,6]naphthyridine-5(6H)-one dihydrochloride] was run?
Its IC50 is 100 nM.

`CCc1ccc2c3c(c(=O)[nH]c2c1)CCCN3` [Example 40, 8-Ethyl-1,2,3,4-tetrahydrobenzo[h][1,6]naphthyridine-5(6H)-one hydrochloride] was tested. Which IC50 did it give?
Its IC50 is greater than 4000 nM.

Which IC50 does the source give for `CC(C)NCc1ccc2c3c(c(=O)[nH]c2c1)CCCN3` [Example 45, 8-[(Isopropylamino)methyl]-1,2,3,4-tetrahydrobenzo[h][1,6]naphthyridine-5(6H)-one dihydrochloride] here?
The IC50 was 260 nM.

For `CCCNCc1ccc2c3c(c(=O)[nH]c2c1)CCCN3` [Example 46, 8-[(Propylamino)methyl]-1,2,3,4-tetrahydrobenzo[h][1,6]naphthyridine-5(6H)-one dihydrochloride], which IC50 is on record?
The IC50 was 590 nM.

How did the IC50 turn out when `O=c1[nH]c2cc(CN3CCOCC3)ccc2c2c1CCCN2` [Example 49, 8-(Morpholinomethyl)-1,2,3,4-tetrahydrobenzo[h][1,6]naphthyridine-5(6H)-one dihydrochloride] was run?
Its IC50 is 620 nM.

With `CN(C)Cc1ccc2[nH]c(=O)c3c(c2c1)NCCC3` [Example 50, 9-[(Dimethylamino)methyl]-1,2,3,4-tetrahydrobenzo[h][1,6]naphthyridine-5(6H)-one dihydrochloride] as the compound, how does the IC50 read?
The IC50 was 320 nM.

With `CN(Cc1ccccc1)Cc1ccc2c3c(c(=O)[nH]c2c1)CCCN3` [Example 51, 8-{[Benzyl(methyl)amino]methyl}-1,2,3,4-tetrahydrobenzo[h][1,6]naphthyridine-5(6H)-one dihydrochloride] as the compound, how does the IC50 read?
The IC50 was 930 nM.

How did the IC50 turn out when `CN1CCN(Cc2ccc3c4c(c(=O)[nH]c3c2)CCCN4)CC1` [Example 55, 8-[(4-Methylpiperazine-1-yl)methyl]-1,2,3,4-tetrahydrobenzo[h][1,6]naphthyridine-5(6H)-one trihydrochloride] was run?
The IC50 was 1720 nM.

`CCOC(=O)CCN(C)Cc1ccc2c3c(c(=O)[nH]c2c1)CCCN3` [Example 57, Ethyl-3-{methyl[(5-oxo-1,2,3,4,5,6-hexahydrobenzo[h][1,6]naphthyridine-8-yl)methyl]amino}propanoate dihydrochloride] was tested. Which IC50 did it give?
Its IC50 is 480 nM.
